Experimental data taken from patent US4640910A (Abbott Laboratories, priority 1985, dated 1987).
In brackets after ≈: the same amount, converted by molar mass. Like-named read-outs stand apart in the source and are kept apart here.

How the values were obtained:
Staph. aureus ATCC 6538P = test: Antimicrobial spectrum, agar dilution MIC; type: cell-based; conditions: Staphylococcus aureus, ATCC6538P, BHI agar, 35°-37° C., 20-24 hours
Staph. aureus CMX 686B = test: Antimicrobial spectrum, agar dilution MIC; type: cell-based; conditions: Staphylococcus aureus, CMX686B, BHI agar, 35°-37° C., 20-24 hours
Staph. aureus A 5177 = test: Antimicrobial spectrum, agar dilution MIC; type: cell-based; conditions: Staphylococcus aureus, A5177
Staph. epidermidis 3519 = test: Antimicrobial spectrum, agar dilution MIC; type: cell-based; conditions: Staphylococcus epidermidis, BHI agar, 35°-37° C., 20-24 hours
[1] = system: Staph. epidermidis 3519 RARI; test: Antimicrobial spectrum, agar dilution MIC; type: cell-based; conditions: Staphylococcus epidermidis
Micrococcus luteus 9341 = test: Antimicrobial spectrum, agar dilution MIC; type: cell-based; conditions: Micrococcus luteus 9341; BHI agar, 35°-37° C., 20-24 hours; read-out: MIC
Micrococcus luteus 4698 = test: Antimicrobial spectrum, agar dilution MIC; type: cell-based; conditions: BHI agar, 35°-37° C., 20-24 hours
[2] = system: Lactobacillus casei ATCC 7469; test: Antimicrobial spectrum, agar dilution MIC; type: cell-based; conditions: Lacticaseibacillus casei, ATCC7469; Lactobacillus casei ATCC 7469; BHI agar, 35°-37° C., 20-24 hours; read-out: MIC
Strep. faecium ATCC 8043 = test: Antimicrobial spectrum, agar dilution MIC; type: cell-based; conditions: Enterococcus faecium, ATCC8043, BHI agar, 35°-37° C., 20-24 hours
Strep. bovis A5169 = test: Antimicrobial spectrum, agar dilution MIC; type: cell-based; conditions: Streptococcus equinus, BHI agar, 35°-37° C., 20-24 hours
[3] = system: Strep. agalactiae CMX 508; test: Antimicrobial spectrum, agar dilution MIC; type: cell-based; conditions: Streptococcus agalactiae, CMX508, BHI agar, 35°-37° C., 20-24 hours
Strep. pyogenes EES61 = test: Antimicrobial spectrum, agar dilution MIC; type: cell-based; conditions: Streptococcus pyogenes, BHI agar, 35°-37° C., 20-24 hours
Strep. pyogenes 930 = test: Antimicrobial spectrum, agar dilution MIC; type: cell-based; conditions: Streptococcus pyogenes, BHI agar, 35°-37° C., 20-24 hours
E. coli JUHL = test: Antimicrobial spectrum, agar dilution MIC; type: cell-based; conditions: Escherichia coli, BHI agar, 35°-37° C., 20-24 hours
E. coli SS = test: Antimicrobial spectrum, agar dilution MIC; type: cell-based; conditions: Escherichia coli, BHI agar, 35°-37° C., 20-24 hours
E. coli DC-2 = test: Antimicrobial spectrum, agar dilution MIC; type: cell-based; conditions: Escherichia coli, DC2, BHI agar, 35°-37° C., 20-24 hours
E. coli H560 = test: Antimicrobial spectrum, agar dilution MIC; type: cell-based; conditions: Escherichia coli, BHI agar, 35°-37° C., 20-24 hours
[4] = system: Enterobact. aerogenes ATCC 13048; test: Antimicrobial spectrum, agar dilution MIC; type: cell-based
[5] = system: Klebsiella pneumoniae 8045; test: Antimicrobial spectrum, agar dilution MIC; type: cell-based; conditions: BHI agar, 35°-37° C., 20-24 hours
[6] = system: Providencia stuartii CMX 640; test: Antimicrobial spectrum, agar dilution MIC; type: cell-based; conditions: Providencia stuartii, CMX640
Ps. aeruginosa BMH10 = test: Antimicrobial spectrum, agar dilution MIC; type: cell-based; conditions: Pseudomonas aeruginosa, BMH10
Ps. aeruginosa A5007 = test: Antimicrobial spectrum, agar dilution MIC; type: cell-based; conditions: Pseudomonas aeruginosa, BHI agar, 35°-37° C., 20-24 hours
Ps. aeruginosa K799/WT = test: Antimicrobial spectrum, agar dilution MIC; type: cell-based; conditions: Pseudomonas aeruginosa, BHI agar, 35°-37° C., 20-24 hours
Ps. aeruginosa K799/61 = test: Antimicrobial spectrum, agar dilution MIC; type: cell-based; conditions: Pseudomonas aeruginosa, BHI agar, 35°-37° C., 20-24 hours
Ps. cepacia 2961 = test: Antimicrobial spectrum, agar dilution MIC; type: cell-based; conditions: Burkholderia cepacia, 2961
[7] = system: Acinetobacter sp. CMX 669; test: Antimicrobial spectrum, agar dilution MIC; type: cell-based; conditions: SP.CMX669, BHI agar, 35°-37° C., 20-24 hours
[8] = Stability and release of drug from prodrug in aqueous buffers pH 2 to 12 (dissolution apparatus, HPLC); type: physicochemical; conditions: for conversion to active drug: 37° C.
Method: (§1) Samples of 2'-trimethylsilylerythromycin A and 2'-trimethylsilyl-6-O-methylerythromycin A were dissolved in 10-50 ml dimethyl sulfoxide or acetonitrile to give a solution containing 15-75 mg/ml. An aliquot containing 75 mg of prodrug was added to aqueous buffers ranging in pH from 2 to 12 to give a final volume equal to 500 ml. The buffered mixtures were stirred at 37° C. for at least 90 minutes. A standard dissolution test apparatus (Vanderkamp 600, Van-Kel Industries, Inc., 36 Meridian Road, Edisoin, N.J. 08820) was used to provide temperature and stirring rate control.
(§2) Aliquots were taken at 15, 30, 45, 60, 90, 120, 180, 240 and 360 minutes for analysis. Each sample was mixed with an internal standard, adjusted rapidly to pH 9 with 1M tricine buffer and extracted immediately with ethyl acetate. The organic extracts were evaporated and redissolved in a solution of 3% tetrahydrofuran in heptane. Samples of these solutions were injected using an autosampler (WISP 71)B, Waters Chromatography, Division of Millipore, 34 Maple Street, Milford, Mass. 01757). The prodrugs and drugs were separated by high performance liquid chromatography, detected at 225 nm using a spectrophotometer (Spectroflow 773 Absorbence Detector, Kratos Analytical Instruments), and were quantified with a digital integrator.

[9] = Solubility of prodrug in aqueous buffers; type: physicochemical
Method: as §1, §2

Strep. pyogenes = test: Extended mouse protection study; conditions: oral
Staph. aureus = test: Extended mouse protection study; conditions: oral
Strep. pneumoniae = test: Extended mouse protection study; conditions: oral
[10] = carboxymethylcellulose with milk (reduces gastric acid secretion)
[11] = phosphate buffer solution with milk (reduces gastric acid secretion)

CC[C@H]1OC(=O)[C@H](C)[C@@H](O[C@H]2C[C@@](C)(OC)[C@@H](O)[C@H](C)O2)[C@H](C)[C@@H](O[C@@H]2O[C@H](C)C[C@H](N(C)C)[C@H]2O[Si](C)(C)C)[C@](C)(OC)C[C@@H](C)C(=O)[C@H](C)[C@@H](O)[C@]1(C)O [Example 3, 2'-O-trimethylsilyl-6-O-methyl-Erythromycin A]
MIC (Staph. aureus ATCC 6538P): 0.78 µg/mL (≈ 0.951 µM) | MIC (Staph. aureus CMX 686B): 0.78 µg/mL (≈ 0.951 µM) | MIC (Staph. aureus A 5177): 3.1 µg/mL (≈ 3.78 µM) | MIC (Staph. epidermidis 3519): 0.78 µg/mL (≈ 0.951 µM) | MIC [1]: 0.39 µg/mL (≈ 0.476 µM) | MIC (Micrococcus luteus 9341): 0.1 µg/mL (≈ 0.122 µM) | MIC (Micrococcus luteus 4698): 0.39 µg/mL (≈ 0.476 µM) | MIC [2]: 0.1 µg/mL (≈ 0.122 µM) | MIC (Strep. faecium ATCC 8043): 0.2 µg/mL (≈ 0.244 µM) | MIC (Strep. bovis A5169): 0.1 µg/mL (≈ 0.122 µM) | MIC [3]: 0.1 µg/mL (≈ 0.122 µM) | MIC (Strep. pyogenes EES61): 0.05 µg/mL (≈ 0.061 µM) | MIC (Strep. pyogenes 930): 100 µg/mL (≈ 122 µM) | MIC (E. coli JUHL): 100 µg/mL (≈ 122 µM) | MIC (E. coli SS): 0.39 µg/mL (≈ 0.476 µM) | MIC (E. coli DC-2): 100 µg/mL (≈ 122 µM) | MIC (E. coli H560): 100 µg/mL (≈ 122 µM) | MIC [4]: 100 µg/mL (≈ 122 µM) | MIC [5]: 100 µg/mL (≈ 122 µM) | MIC [6]: 100 µg/mL (≈ 122 µM) | MIC (Ps. aeruginosa BMH10): 100 µg/mL (≈ 122 µM) | MIC (Ps. aeruginosa A5007): 100 µg/mL (≈ 122 µM) | MIC (Ps. aeruginosa K799/WT): 100 µg/mL (≈ 122 µM) | MIC (Ps. aeruginosa K799/61): 25 µg/mL (≈ 30.5 µM) | MIC (Ps. cepacia 2961): 100 µg/mL (≈ 122 µM) | MIC [7]: 50 µg/mL (≈ 61 µM) | conversion to active drug ([8]; acid pH): converted to the active drug 6-O-methylerythromycin A | release rates ([8]; pH 3 and 4, 37° C.): both dissolution-rate limited release and also release from the initially dissolved material | release rates ([8]; pH 5, 6 and 7, 37° C.): dissolution-rate limited release | decomposition ([8]; pH 7, owing to solubility properties): severely restrict its decomposition | conversion to active drug ([8]; pH 8 or above): Very little or no conversion | solubility ([9]; aqueous buffer, pH 2, completely soluble, read-out: solubility): ≥ 150 µg/mL | solubility ([9]; neutral or alkaline pH): little or no solubility | ED50 (Strep. pyogenes; [10]): 7.8 mg/kg/day | ED50 (Strep. pyogenes; phosphate buffer solution): 12.7 mg/kg/day | ED50 (Strep. pyogenes; [11]): 14.1 mg/kg/day | ED50 (Staph. aureus; carboxymethylcellulose): 34.9 mg/kg/day | ED50 (Staph. aureus; phosphate buffer solution): 157.9 mg/kg/day | ED50 (Strep. pneumoniae; carboxymethylcellulose): 7.9 mg/kg/day | ED50 (Strep. pneumoniae; [10]): 7.3 mg/kg/day | ED50 (Strep. pneumoniae; phosphate buffer solution): 9.3 mg/kg/day | ED50 (Strep. pneumoniae; [11]): 10.9 mg/kg/day
